Patent US20230065640A1, “COMBINATION THERAPIES AND BIOMARKERS FOR TREATING B-CELL LYMPHOMAS” (priority 2020, published 2023)

Tests used:
[1] = test system: SU-DHL-10, OCI-LY-7 and SU-DHL-2 cells; test: Cell proliferation XTT assay in DLBCL cells with or without MYCC rearrangement; type: cell-based, Human; conditions: DLBCL with a MYCC rearrangement versus without, 72 h incubation, FIG. 4
Method: (§1) Cell Culture. Human diffuse large B-cell lymphoma cells, SU-DHL-10, SU-DHL-4, OCI-LY-7 and SU-DHL-2 cells (purchased from Cell Bank, Shanghai Institutes for Biological Sciences, Chinese Academy of Sciences) were cultured in RPMI 1640 (Hyclone™, SH30809.01B) supplemented with 10% fetal bovine serum (GEMINI, 900-108). Cultures were incubated at 37° C., in 5% CO2.
Cell Treatment and proliferation assay. SU-DHL-10, OCI-LY-7 and SU-DHL-2 cell were seeded in 96-well plates (Corning-Costar, 3599) at 40000 cells/well in 200 μl culture medium treated with YM155 (50, 25, 12.5, 2.5, 1, 0.5 nM; Apex BIO, A4221) or DMSO (0.1%; Amresco, 67-68-5). After 72 h incubation, cell proliferation was measured by XTT assay (Cell Proliferation Kit II XTT, sigma, 11465015001) according to manufacturer's protocols. Briefly, after YM155 treatment, added to each well 50 μl of the XTT labeling mixture, then incubated the micro-plate for 4 h in a humidified atmosphere. The absorbance of wavelength was determined at 490 nm (OD490) and 650 nm (OD650) respectively by SpectraMax 190. The IC50 was calculated by the value of OD490. OD650.

[2] = test system: DLBCL cells with a MYCC rearrangement; test: Apoptosis assay (Annexin V/PI staining); type: cell-based, Human; conditions: 24 hours post-treatment, FIG. 5A
Method: as §1
Apoptosis Assay. Apoptosis was detected by Annexin V/PI staining kit (Thermo Fisher) according to the manufacturer's instructions. Briefly, cells were plated at a density of 5×10^5 cells/mL in RPMI 1640 media with 2% FBS with desired concentrations of YM155. At 24 hours post-treatment the cells were harvested and tested for apoptosis by Annexin V and PI staining. Cell analysis was performed using a FACSAria (BD).

c-MYC = test: Western blot of c-MYC in DLBCL cells; type: cell-based, Human; conditions: DLBCL cells with a MYCC rearrangement; treated 24 hours; FIG. 5B
Method: as §1
Western blot. SU-DHL-10, OCI-LY-7 and SU-DHL-2 cells were treated with/without YM155 for 24 hours. Cell lysates were prepared in lysis buffer (Thermo Fisher). Protein concentrations were determined using a Bio-Rad protein assay (Bio-Rad). 20 μg protein was loaded in 4%-12% SDS-PAGE (Invitrogen), and transferred to nitrocellulose. Membranes were blocked in 5% BSA (Sigma) for 1 hour, incubated with the primary antibody overnight at 4° C., washed and incubated with the appropriate horseradish-conjugated secondary antibody (1:5000, Cell Signaling Technology) for 1 hour at room temperature. An enhanced chemiluminescent kit (Beyotime Biotechnology) was used to visualize the signal. The following antibodies were used: c-MYC (Abcam) and GAPDH (Beyotime Biotechnology).

[3] = test system: DLBCL with a MYCC rearrangement; test: CDX mouse model of DLBCL with a MYCC rearrangement; type: in vivo, BALB/C-nu mice
Method: (§2) Tumor Xenograft models (CDX models). BALB/C-nu mice (6-8 weeks, SPF Biotechnology Co., Ltd) were inoculated by s.c. injection of tumor cell (SU-DHL-10, SU-DHL-4 or OCI-LY-7) suspension containing Matrigel (Corning)/PBS at a ratio of 1:1. 1×10^7 cells were inoculated. When tumors reached 150-200 mm^3, treatment was initiated. Tumor growth was monitored twice a week. Tumor volume was calculated by applying the following equation: tumor volume=½(length×width^2).

[4] = test system: DLBCL with a MYCC rearrangement and BCL2 expression (MYCC/BCL2 associated lymphoma); test: CDX mouse model of DLBCL with a MYCC rearrangement and BCL2 expression; type: in vivo, BALB/C-nu mice; conditions: FIG. 8; alone and in combination with BCL2 inhibitor (ABT199)
Method: as §2

[5] = test system: SU-DHL-4 (double hit (MYCC/BCL2), CD20 positive); test: SU-DHL-4 CDX model; type: in vivo, BALB/C-nu mice; conditions: FIG. 10; b/c-nu; PC-002 5 mg/kg i.p., alone and in combination with CHOP or RCHOP
Method: CHOP: cyclophosphamide, 40 mg/kg, QW*3, D1, i.v., doxorubicin, 3.3 mg/kg, QW*3, D1, i.v., vincristine, 0.5 mg/kg, QW*3, D1, i.v., prednisone, 0.2 mg/kg, QD*5*3W,D1-5, p.o. RCHOP: rituximab, 25 mg/kg, QW*3, i.p., cyclophosphamide, 40 mg/kg, QW*3, D1, i.v., doxorubicin, 3.3 mg/kg, QW*3, D1, i.v., vincristine, 0.5 mg/kg, QW*3, D1, i.v., prednisone, 0.2 mg/kg, QD*5*3W,D1-5, p.o. PC-002: 5 mg/kg, QD*5*3w, D1-5, i.p.

survivin = conditions: Minematsu et al. 2008; cited from earlier work
[6] = test system: prostate, pancreatic, and lung cancer; conditions: cited from earlier work
[7] = FIG. 6, alone and in combination with PARP inhibitor (olaparib)

Compound | sensitivity of DLBCL to YM155 (cell proliferation) [1] | apoptosis of DLBCL cells [2] | MYCC expression (c-MYC) | effect on tumor growth [3, 7] | effect on tumor growth ([3]; FIG. 7, alone and in combination with CHOP) | effect on tumor volume ([3]; FIG. 9, b/c-nu, PC-002 5 mg/kg i.p., alone and in combination with CHOP) | effect on tumor growth [4] | effect on tumor volume [5] | survivin expression (survivin) | antitumor activity ([6]; Minematsu et al. 2008) | anti-tumor effects in various in vivo cancer models ([6]; prostate, pancreatic, and lung cancer, Nakahara et al. 2007, Na et al. 2012)
1-(2-Methoxyethyl)-2-methyl-4,9-dioxo-3-(pyrazin-2-ylmethyl)-4,9-dihydro-1H-naphtho[2,3-d] imidazolium bromide [YM155] | more sensitive | induces apoptosis | lowers the MYCC expression | tumor regression | tumor regression | significant effect on reducing tumor volume | complete tumor regression | profound effect on reducing tumor volume, essentially eliminating tumor growth | down-regulation of survivin | potent antitumor activity | exerts anti-tumor effects
CC1(C)CCC(CN2CCN(c3ccc(C(=O)NS(=O)(=O)c4ccc(NCC5CCOCC5)c([N+](=O)[O-])c4)c(Oc4cnc5[nH]ccc5c4)c3)CC2)=C(c2ccc(Cl)cc2)C1 [ABT199] | – | – | – | – | – | – | no significant effect on tumor growth | – | – | – | –
O=C(c1cc(Cc2n[nH]c(=O)c3ccccc23)ccc1F)N1CCN(C(=O)C2CC2)CC1 [olaparib] | – | – | – | no significant effect on tumor growth | – | – | – | – | – | – | –
